For data set [1], the system named is 3′ UTR of the human DMPK gene. As to the kind of experiment: Single-cut screening: indel editing efficiency by Sanger sequencing and ICE analysis in primary DM1 patient myoblasts. As to conditions: vehicle-treated samples; for Indel efficiency: single SluCas9 sgRNA RNP in primary DM1 patient myoblasts, Sanger sequencing and ICE analysis. Format: cell-based. A digest of the protocol: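 Indels were estimated by ICE from Sanger chromatograms of PCR amplicons covering the DMPK 3′ UTR wild-type allele, using only vehicle-treated samples; sgRNAs with R2<0.9 are flagged. Samples came from primary DM1 patient myoblasts (2 × 10^5) harvested 72 h after nucleofection with 30 pmol SluCas9 and 90 pmol single sgRNA RNP.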

Data set [2] relates to CUG foci in primary DM1 patient myoblasts. As to the kind of experiment: Single-cut screening: FISH staining of CUG RNA foci. As to conditions: single sgRNA, primary DM1 patient myoblasts; for % of CUG foci free nuclei (DNA-PKi): DNA-PKi treated. Format: cell-based, human. A digest of the protocol:
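CD56-purified primary DM1 patient myoblasts nucleofected with SluCas9:sgRNA RNP (30:90 pmol, single-cut), then DMSO or 3 μM DNA-PK inhibitor for 48 h. At 72 h post-nucleofection, cells fixed and stained for CUG foci with Cy3-PNA(CAG)5 probe (1 ng/μL, 80 °C), co-stained for MBNL1 and Hoechst, imaged by high-content confocal microscopy.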

For data set [3], the system named is CAG foci in primary DM1 patient myoblasts. As to the kind of experiment: Single-cut screening: CAG foci staining. The data set is classed as cell-based, human. As to conditions: single sgRNA; for % of CAG foci positive nuclei (DNA-PKi): DNA-PKi treated. A digest of the protocol: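 Primary DM1 patient myoblasts were PFA-fixed and hybridized with […] (1 ng/μL, 15 min at 80° C) in 30% formamide/2×SSC, followed by anti-MBNL1 immunostaining and Hoechst counterstain. CAG RNA foci were quantified by high-content confocal imaging after single-cut SuCas9 sgRNA editing.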

In the case of “GCCCGGATCACAGGACTGGAGC (guide RNA; chemistry not fully specified) [SluU30]”, in data set [1], the Indel efficiency is reported as 48%. Further, in data set [2], the “% of CUG foci free nuclei (DNA-PKi)” value is on record as 46.16% and the “% of CUG foci free nuclei (Vehicle)” value turned out to be 26.92%. Moreover, in data set [3], the “% of CAG foci positive nuclei (DNA-PKi)” value was determined as 2.14% and the “% of CAG foci positive nuclei (Vehicle)” value was determined as 0.67%.

As for “GACGCCCTGCTCTGGGGAGCGT (guide RNA; chemistry not fully specified) [SluD33]”, the Indel efficiency in data set [1] is given as 74%. In data set [2], the “% of CUG foci free nuclei (DNA-PKi)” value stood at 33.92% and the “% of CUG foci free nuclei (Vehicle)” value is on record as 12.72%. Besides, in data set [3], the “% of CAG foci positive nuclei (DNA-PKi)” value amounted to 1.76% and the “% of CAG foci positive nuclei (Vehicle)” value is on record as 4.78%.

“cggcccctccctccccggccGC (guide RNA; as printed in the source, key not given here) [SluU51]” registered an Indel efficiency in data set [1] of 28%. In data set [2], the “% of CUG foci free nuclei (DNA-PKi)” value amounted to 46.88% and the “% of CUG foci free nuclei (Vehicle)” value was found to be 8.62%. In data set [3], the “% of CAG foci positive nuclei (DNA-PKi)” value came to 1.6% and the “% of CAG foci positive nuclei (Vehicle)” value was 0.72%.

Turning to “AATAAATATCCAAACCGCCGAA (guide RNA; chemistry not fully specified) [SluD64]”, the Indel efficiency in data set [1] was found to be 23%. Moreover, in data set [2], the “% of CUG foci free nuclei (DNA-PKi)” value turned out to be 32.65% and the “% of CUG foci free nuclei (Vehicle)” value is recorded as 11.02%. In addition, in data set [3], the “% of CAG foci positive nuclei (DNA-PKi)” value turned out to be 2.38% and the “% of CAG foci positive nuclei (Vehicle)” value was found to be 2.64%.

Substance “GGGGCGCGGGATCCCCGAAAAA (guide RNA; chemistry not fully specified) [SluD44]” yielded an Indel efficiency in data set [1] of 24%. Further, in data set [2], the “% of CUG foci free nuclei (DNA-PKi)” value came to 36.44% and the “% of CUG foci free nuclei (Vehicle)” value was 8.05%. In data set [3], the “% of CAG foci positive nuclei (DNA-PKi)” value is 2.29% and the “% of CAG foci positive nuclei (Vehicle)” value amounted to 1.49%.

Regarding “TTATTCGCGAGGGTCGGGGGTG (guide RNA; chemistry not fully specified) [SluD89]”, the Indel efficiency in data set [1] is 0%. Further, in data set [2], the “% of CUG foci free nuclei (DNA-PKi)” value was 11.37% and the “% of CUG foci free nuclei (Vehicle)” value was found to be 10.23%. For the same substance, in data set [3], the “% of CAG foci positive nuclei (DNA-PKi)” value came out at 2.54% and the “% of CAG foci positive nuclei (Vehicle)” value was 0.61%.

In data set [1], “CCCTAGAACTGTCTTCGACTCC (guide RNA; chemistry not fully specified) [SluU03]” returned an Indel efficiency of 9%. In data set [2], the “% of CUG foci free nuclei (DNA-PKi)” value is reported as 49.49% and the “% of CUG foci free nuclei (Vehicle)” value amounted to 11.12%. In addition, in data set [3], the “% of CAG foci positive nuclei (DNA-PKi)” value is listed as 2.04% and the “% of CAG foci positive nuclei (Vehicle)” value was 1.05%.

In turn, “GGGTCGGGGGTGGGGGTCCTAG (guide RNA; chemistry not fully specified) [SluD87]” registered an Indel efficiency in data set [1] of 30%. Moreover, in data set [2], the “% of CUG foci free nuclei (DNA-PKi)” value is given as 39.12% and the “% of CUG foci free nuclei (Vehicle)” value amounted to 15.16%. Besides, in data set [3], the “% of CAG foci positive nuclei (DNA-PKi)” value was 2.19% and the “% of CAG foci positive nuclei (Vehicle)” value stood at 1.3%.

Substance “CTAGCggccggggagggagggg (guide RNA; as printed in the source, key not given here) [SluU47]” returned an Indel efficiency in data set [1] of 0%. In data set [2], the “% of CUG foci free nuclei (DNA-PKi)” value amounted to 12.71% and the “% of CUG foci free nuclei (Vehicle)” value stood at 5.91%. In data set [3], the “% of CAG foci positive nuclei (DNA-PKi)” value worked out at 2.4% and the “% of CAG foci positive nuclei (Vehicle)” value worked out at 1%.

The substance “CCAGGCTGAGGCCCTGACGTGG (listed as DNA, chemistry not fully specified) [SluD06]” came in with an Indel efficiency in data set [1] of 55%. In addition, the “indel efficiency (Sanger sequencing and ICE analysis)” value in data set [1] (single-cut, SluCas9 RNP, 72 hrs post nucleofection, wild-type allele) was “high editing IN4DEL efficiency”. Further, in data set [2], the “% of CUG foci free nuclei (DNA-PKi)” value amounted to 23.09% and the “% of CUG foci free nuclei (Vehicle)” value was determined as 24.51%. Moreover, in data set [3], the “% of CAG foci positive nuclei (DNA-PKi)” value is reported as 1.35% and the “% of CAG foci positive nuclei (Vehicle)” value was found to be 3.12%.

The record behind these values is patent US20240173432A1, “Compositions and Methods for Treatment of Myotonic Dystrophy Type 1 with CRISPR/SluCas9” (Vertex Pharmaceuticals Incorporated, priority 2021, published 2024).
